Experimental data: patent publication US20240081377A1, “USING ORGANOIDS AND/OR SPHEROIDS TO CULTIVATE MEAT” (Orbillion Bio, Inc., priority 2020, published 2024)

Assays:
A549 spheroids = assay: On-chip drug toxicity screening of A549 spheroids (dye exclusion assay, Hoechst / ethidium homodimer-1); format: cell-based, human; details: A549 spheroids of all sizes (300-1000 μm), different concentrations, 24 hours
Description: A549 cells were seeded at a concentration of 1×10^6 cells per ml and cultivated for three days under standard cell culture conditions under bi-directional flow (e.g. using a rocking device). Stock solutions of 10 mM cisplatin (Sigma-Aldrich, Austria) in DMSO and 10 mM doxorubicin (Sigma-Aldrich, Austria) in PBS were prepared. Doxorubicin and cisplatin were dissolved in cell culture medium to yield concentrations of 0.5, 1, 5, 10, 25, 50 and 500 μM for the treatment of A549 spheroids. Cell culture medium within the channels of the devices was replaced with drug containing medium and incubated for 24 hours prior to cell death analyses. One channel on a separate device was used as an untreated control. […] Raw fluorescence signals were processed and dose-response curves were generated by Sigmoidal-4PL non-linear regression analysis.
Live A549 cell spheroids of different sizes (300 μm, 500 μm, 700 μm, 900 μm, 1000 μm in diameter) were stained with Hoechst; blue and Ethidium homodimer-1; red and treated with different concentrations (100 μM, 10 μM and 1 μM) of CIS, DOX, and CIS:DOX to screen drug toxicity for up to 24 hours following drug treatment. […] Viability of live human A549 cell spheroids of different sizes (measured as a % of the untreated control) was calculated as a function of chemotherapy drug treatment concentration (CIS, DOX, and CIS:DOX). […]

spheroids = assay: Spheroid expansion (spheroid diameter) following recombinant growth factor treatment; format: cell-based; details: wells 300 μm in diameter, 3 days after treatment
Source text: (§1) FIG. 20A to FIG. 20B illustrates spheroid diameter of cells cultured in wells measuring 900 μm in diameter for 12 days following growth factor treatment with fibroblast growth factor (FGF), hepatocyte growth factor (HGF), and insulin-like growth factor (IGF). More specifically, FIG. 20A depicts spheroid diameter in and FIG. 20B depicts spheroid diameter as a percentage of size increase as compared to control.
as §1, with “21A” for “20A”, “21B depicts” for “20B illustrates”, “300” for “900”, “21B” for “20B”

| Molecule | viability of A549 cell spheroids (measured as a % of the untreated control) (A549 spheroids) | spheroid diameter, size increase as compared to control (spheroids) |
| --- | --- | --- |
| COc1cccc2c1C(=O)c1c(O)c3c(c(O)c1C2=O)C[C@@](O)(C(=O)CO)C[C@@H]3O[C@H]1C[C@H](N)[C@H](O)[C@H](C)O1 [DOX, Doxorubicin] | decreased sharply |  |
| HGF: recombinant hepatocyte growth factor |  | largest difference |
